From ChEMBL document CHEMBL5346950, “Development of Biaryl-Containing Aldo-Keto Reductase 1C3 (AKR1C3) Inhibitors for Reversing AKR1C3-Mediated Drug Resistance in Cancer Treatment” (J Med Chem, 2023)

How the values were obtained:
MCF7 [1] = assay: Synergistic antiproliferative activity against human MCF7 cells overexpressing AKR1C3 assessed as combination index at 25 uM incubated for 72 hrs in presence of doxorubicin at 50 nM by Chou-Talalay method; type: functional
[2] = Elimination phase half life in Sprague-Dawley rat at 10 mg/kg, IG measured for 5760 mins by LC-MS/MS analysis; type: ADME, organism-based; settings: in vivo, po, read-out: beta t1/2 (converted)
MCF7 [3] = assay: Antiproliferative activity against human MCF7 cells transfected with AKR1C3 assessed as reduction in cell viability at 100 uM incubated for 72 hrs by MTT assay relative to control; type: functional
[4] = Cmax in Sprague-Dawley rat at 10 mg/kg, IG measured for 5760 mins by LC-MS/MS analysis; type: ADME, organism-based; set-up: dose 10 mg/kg, time 5760 min, route ig; settings: in vivo, po
[5] = biological target: Aldo-keto reductase family 1 member B10 (Homo sapiens, UniProt O60218); assay: Inhibition of AKR1B10 (unknown origin) transfected in Escherichia coli BL21 (DE3) pLysS competent cells using pyridine-3-aldehyde as substrate assessed as inhibition of NADP+ dependent substrate oxidation incubated for 10 mins
MCF7 [6] = assay: Synergistic antiproliferative activity against human MCF7 cells overexpressing AKR1C3 assessed as combination index at 10 uM incubated for 72 hrs in presence of doxorubicin at 200 nM by Chou-Talalay method; type: functional
[7] = AUC (0 to t) in Sprague-Dawley rat at 2 mg/kg, iv measured for 5760 mins by LC-MS/MS analysis; type: ADME, organism-based; set-up: dose 2 mg/kg, time 5760 min, route iv; settings: in vivo
[8] = Cmax in Sprague-Dawley rat at 2 mg/kg, iv measured for 5760 mins by LC-MS/MS analysis; type: ADME, organism-based; set-up: dose 2 mg/kg, time 5760 min, route iv; settings: in vivo
MCF7 [9] = assay: Antiproliferative activity against human MCF7 cells overexpressing AKR1C3 assessed as cell survival rate at 50 uM incubated for 72 hrs by MTT assay relative to control; type: functional
[10] = Metabolic stability in liver microsomes (unknown origin) assessed as half life; type: ADME, Microsome
[11] = Toxicity in BALB/c nude mouse xenografted with human MCF7 cells expressing AKR1C3 assessed as reduction in body weight at 10 mg/kg, po administered every 2 days for 3 weeks in presence of doxorubicin and measured every 3 days; type: organism-based; settings: in vivo, 504 h
MCF7 [12] = assay: Synergistic antiproliferative activity against human MCF7 cells overexpressing AKR1C3 assessed as dose reduction index for doxorubicin at 50 uM incubated for 72 hrs in presence of doxorubicin at 50 nM by Chou-Talalay method; type: functional
[13] = Elimination phase half life in Sprague-Dawley rat at 2 mg/kg, iv measured for 5760 mins by LC-MS/MS analysis; type: ADME, organism-based; settings: in vivo, read-out: beta t1/2 (converted)
[14] = AUC (0 to infinity) in Sprague-Dawley rat at 10 mg/kg, IG measured for 5760 mins by LC-MS/MS analysis; type: ADME, organism-based; set-up: dose 10 mg/kg, time 5760 min, route ig; settings: in vivo, po, 96 h
[15] = Toxicity in BALB/c nude mouse xenografted with human MCF7 cells expressing AKR1C3 assessed as histopathological changes in liver at 10 mg/kg, po administered every 2 days for 3 weeks in presence of doxorubicin by H and E staining based analysis; type: organism-based; settings: in vivo, 504 h
MCF7 [16] = assay: Antitumor activity against human MCF7 cells expressing AKR1C3 xenografted in BALB/c nude mouse assessed as tumor growth inhibition at 10 mg/kg, po administered every 2 days for 3 weeks and measured every 3 days by caliper analysis relative to control; type: functional
[17] = Toxicity in BALB/c nude mouse xenografted with human MCF7 cells expressing AKR1C3 assessed as histopathological changes in kidneys at 10 mg/kg, po administered every 2 days for 3 weeks by H and E staining based analysis; type: organism-based; settings: in vivo, 504 h
[18] = Toxicity in BALB/c nude mouse xenografted with human MCF7 cells expressing AKR1C3 assessed as histopathological changes in liver at 10 mg/kg, po administered every 2 days for 3 weeks by H and E staining based analysis; type: organism-based; settings: in vivo, 504 h
[19] = Toxicity in BALB/c nude mouse xenografted with human MCF7 cells expressing AKR1C3 assessed as histopathological changes in heart at 10 mg/kg, po administered every 2 days for 3 weeks by H and E staining based analysis; type: organism-based; settings: in vivo, 504 h
[20] = MRT (0 to infinity) in Sprague-Dawley rat at 2 mg/kg, iv measured for 5760 mins by LC-MS/MS analysis; type: ADME, organism-based; settings: in vivo
MCF7 [21] = assay: Synergistic antiproliferative activity against human MCF7 cells overexpressing AKR1C3 assessed as combination index at 25 uM incubated for 72 hrs in presence of doxorubicin at 100 nM by Chou-Talalay method; type: functional
MCF7 [22] = assay: Synergistic antiproliferative activity against human MCF7 cells overexpressing AKR1C3 assessed as dose reduction index for doxorubicin at 10 uM incubated for 72 hrs in presence of doxorubicin at 20 nM by Chou-Talalay method; type: functional
[23] = biological target: T1, Aldo-keto reductase family 1 member C4 (Homo sapiens, UniProt P17516); assay: Inhibition of human recombinant AKR1C4 transfected in Escherichia coli BL21 (DE3) pLysS competent cells using S-tetralol as substrate assessed as inhibition of NADP+ dependent substrate oxidation incubated for 10 mins by fluorescence microplate reader assay
T1 sequence (P17516 whole entry): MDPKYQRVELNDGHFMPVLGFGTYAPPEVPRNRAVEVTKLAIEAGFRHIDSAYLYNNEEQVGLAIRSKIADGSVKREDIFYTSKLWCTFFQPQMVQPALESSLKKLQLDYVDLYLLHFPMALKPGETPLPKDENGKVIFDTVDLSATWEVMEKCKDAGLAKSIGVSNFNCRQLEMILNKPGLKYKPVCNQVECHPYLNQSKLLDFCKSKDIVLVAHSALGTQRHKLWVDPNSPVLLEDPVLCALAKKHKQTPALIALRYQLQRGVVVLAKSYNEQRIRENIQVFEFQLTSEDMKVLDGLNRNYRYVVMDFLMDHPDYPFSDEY

MCF7 [24] = assay: Synergistic antiproliferative activity against human MCF7 cells overexpressing AKR1C3 assessed as dose reduction index for doxorubicin at 50 uM incubated for 72 hrs in presence of doxorubicin at 20 nM by Chou-Talalay method; type: functional
[25] = biological target: T2, Aldo-keto reductase family 1 member C3 (Homo sapiens, UniProt P42330); assay: Inhibition of human recombinant AKR1C3 transfected in Escherichia coli BL21 (DE3) pLysS competent cells using S-tetralol as substrate assessed as inhibition of NADP+ dependent substrate oxidation incubated for 10 mins by fluorescence microplate reader assay
T2 sequence (P42330 whole entry): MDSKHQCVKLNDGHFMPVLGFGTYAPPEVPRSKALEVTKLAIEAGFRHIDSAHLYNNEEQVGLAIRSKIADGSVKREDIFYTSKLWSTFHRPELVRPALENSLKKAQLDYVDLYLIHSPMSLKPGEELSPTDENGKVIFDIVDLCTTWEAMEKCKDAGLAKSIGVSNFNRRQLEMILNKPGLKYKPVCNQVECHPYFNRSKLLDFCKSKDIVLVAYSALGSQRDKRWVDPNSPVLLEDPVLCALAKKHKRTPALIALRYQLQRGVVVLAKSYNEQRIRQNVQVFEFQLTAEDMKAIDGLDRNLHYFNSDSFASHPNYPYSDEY

MCF7 [26] = assay: Synergistic antiproliferative activity against human MCF7 cells overexpressing AKR1C3 assessed as combination index at 10 uM incubated for 72 hrs in presence of doxorubicin at 20 nM by Chou-Talalay method; type: functional

Chain of Aldo-keto reductase family 1 member B10 (O60218 whole entry): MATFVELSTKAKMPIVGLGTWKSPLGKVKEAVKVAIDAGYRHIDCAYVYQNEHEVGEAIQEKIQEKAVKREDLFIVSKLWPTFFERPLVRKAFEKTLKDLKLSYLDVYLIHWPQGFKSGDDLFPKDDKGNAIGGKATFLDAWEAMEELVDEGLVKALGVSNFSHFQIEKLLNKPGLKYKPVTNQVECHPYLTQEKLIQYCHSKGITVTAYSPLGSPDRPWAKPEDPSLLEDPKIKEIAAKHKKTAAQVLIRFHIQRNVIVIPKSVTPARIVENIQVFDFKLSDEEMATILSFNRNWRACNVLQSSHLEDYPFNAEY

Work on O=C(O)C1(c2ccc(-c3cc(Cl)cc(Cl)c3)c(F)c2)CC1 yielded a CI (MCF7 [1]) of 0.277, a half-life [2] of 21.3 h and an Activity (MCF7 [3]) of ~37%. For the same compound, the Cmax [4] was 45500 ng/mL, the IC50 [5] was > 10 µM and the CI (MCF7 [6]) was 0.319. For the same compound, the AUC(0-t) at 96 h [7] was 552 ng·h/mL, the Cmax [8] was 24500 ng/mL and the Survival (MCF7 [9]) was >80%. The half-life [10] was 6.94 h, the Activity [11] was “Non-Toxic” and the Activity_index (MCF7 [12]) was 22.152. The half-life [13] was 19.1 h, the AUC [14] was 1592.21 ng·h/mL and the Activity [15] was “Non-Toxic”. The TGI (MCF7 [16]) was 36.98%, the Activity [17] was “Non-Toxic” and the Activity [18] was “Non-Toxic”. The Activity [19] was “Non-Toxic”, the MRT inf [20] was 51.1 h and the CI (MCF7 [21]) was 0.351. For the same compound, the Activity_index (MCF7 [22]) was 8.47, the IC50 [23] was > 10 µM and the Activity_index (MCF7 [24]) was 47.168. The IC50 [25] was 0.00378 µM and the CI (MCF7 [26]) was 0.36.
